# Measured values from a melting point compilation (Tetko et al.; mined from patent text by program, amines drawn as free bases though some values may be those of a salt).
row,melting point,Compound
1,153 to 156 °C,CCOC(=O)CNc1cnc(-c2ccc(OCc3ccccc3)c(C34CC5CC(CC(C5)C3)C4)c2)nc1
2,166 to 169 °C,OC(=S)CCCCCCn1c(-c2ccccc2)nc(-c2ccccc2)c1-c1ccccc1
3,218 to 219 °C,CN1C(=O)c2cc(CCc3ccncc3)cnc2N(C2CC2)c2nc(Cl)ccc21
4,204 to 206 °C,COc1ccc(/C=C/C(=O)C2C(=O)CC(c3ccc(OC)cc3)C([N+](=O)[O-])C2c2cccc([N+](=O)[O-])c2)cc1 (configuration not stated)
5,61 to 66 °C,O=C(Nc1ccc(N2CCNCC2)c(C(F)(F)F)c1)c1ccc(F)c(OCc2cccnc2)c1
6,> 300 °C,Cn1ncc(C(=O)O)c1C(=O)Nc1ccn2nc(-c3ccccc3)nc2c1
7,125 to 126 °C,[N-]=[N+]=NCC(=O)Nc1ccc(S(=O)(=O)c2cccc(Cl)c2)cc1
8,140 to 141 °C,COc1ccc(F)cc1NC(=O)Nc1ccc(N2CCN(C(=O)Nc3ccc(OCCO)cc3C(F)(F)F)CC2)cc1
9,104 to 105 °C,O=C(NCCc1c[nH]c2ccc(F)cc12)OCc1ccccc1
10,100 °C,N#Cc1ccccc1C(=O)c1ccccc1O
11,200 to 205 °C,Cn1cc(-c2cccc(-n3ncc4cc(C(C)(C)C)cc(F)c4c3=O)c2CO)cc(Nc2ccc(C(C)(C)O)cn2)c1=O
12,237 to 239 °C,COc1cc(C(=O)O)ccc1Cn1nnc2ccc(NC(=O)OC3CCCC3)cc21
13,58 to 63 °C,COc1ccc(NC(=O)OCC2(COC(=O)Nc3ccc(OC)cc3)CSc3ccccc3C2=O)cc1
14,193 to 194 °C,COc1ccc(S(=O)(=O)n2ccc3ccnc(-c4ccncc4)c32)cc1
15,209 °C,CCN1CCc2ccc(Nc3ncc(Cl)c(N[C@@H]4c5ccccc5C[C@@H]4O)n3)cc2CC1
16,76 to 78 °C,CCOC(=O)C1=CC(CF)(CF)Oc2ccc(Cl)cc21
17,178 °C,Cc1cc(-n2cccn2)c2cccc(OCc3c(Cl)ccc(S(=O)(=O)N4CCOCC4)c3Cl)c2n1
18,140 to 142 °C,CCOC(=O)C(Cc1cc2cc(C#N)ccc2o1)c1ccc(O)cc1 (configuration not stated)
19,138 to 139 °C,COc1cccc(Cn2cnc3c(-c4ccco4)ncnc32)c1

row,melting point,Compound
1,< 45 °C,O=C(O)Cc1ccc(Cn2nc(-c3ccccc3)c(Cc3cc4c(cc3Cl)OCO4)c2C(=O)O)cc1
2,290 to 295 °C,O=c1[nH]c2cc(Br)c3c(c2[nH]c1=O)CN(CCc1ccccc1)CC3
3,84 to 87 °C,COCCOc1cc(-n2c(=O)cc(C(F)(F)F)n(C)c2=O)c(F)cc1Cl
4,196 °C,N#Cc1cc(NC(=O)c2ccn(-c3ccc(Cl)cc3)c2)ccc1N1CCN(CCO)CC1
5,91 to 93 °C,COc1cc(N(C)C)cc(CN(C)CCc2ccc(N=C(N)c3cccs3)cc2)c1O
6,171 to 172 °C,COCCCn1ccc2c3c(c(-c4ccccc4Cl)cc21)C(=O)NC3=O
7,106 to 107 °C,O=C(O)c1ccccc1C(=O)c1c(-c2ccccc2)[nH]c2ccccc12
8,116 to 117 °C,COCCNC(=O)c1cccc(-c2c(F)ccc3cc(Cc4cccc(C(F)(F)F)c4)sc23)c1
9,155 to 158 °C,Cc1sc(-c2ccncc2)nc1CCOc1ccc(C[C@H](Nc2ccccc2C(=O)c2ccccc2)C(=O)O)cc1
10,144 to 147 °C,COC(=O)c1ccc2cc(OC(=S)N(C)C)ccc2c1
11,60 to 62 °C,C=CCn1c2c(ccc1=O)C(NCCc1ccccc1)CCC2 (configuration not stated)
12,253 to 255 °C,O=C(O)c1cccc2c1sc1ccccc12
13,234 to 235 °C,Cc1c(OCC(F)(F)F)ccnc1CS(=O)c1nc2cc(-n3ccnc3)c(F)cc2[nH]1 (configuration not stated)
14,63 to 64 °C,CCC(=O)c1ccc(OCc2cccc(C(F)(F)F)c2)cc1
15,242 to 244 °C,O=C(Cn1c(-c2ccc(Br)cc2)nc2cccnc21)Nc1ccccc1
16,226 °C,CCNS(=O)(=O)c1cccc(NC(=O)c2cnn3c(C(F)(F)F)cc(-c4ccc(C(F)(F)F)c(OCC)c4)nc23)c1
17,244 to 245 °C,NC(=O)c1cccc(C(=O)Nc2ccc(-n3nc(C(F)(F)F)cc3C(F)(F)F)cc2)c1
18,124 to 125 °C,CCCN1C(=O)N2C[C@@H](Cc3ccccc3)N=C2c2c1nc(N1CCCC1)n2Cc1ccccc1
19,92 to 93.5 °C,CCOC(=O)C(C)(C#N)c1cccc2c(-c3ccc(Cl)cc3)nccc12 (configuration not stated)

row,melting point,Compound
1,163 to 164 °C,N#Cc1cccc(-c2ccc(-c3cccc(C#N)c3)o2)c1
2,238 to 240 °C,NC(=O)c1ccc(-c2ccc3nnn(Cc4ccc5ncsc5c4)c3n2)cc1Cl
3,86 to 90 °C,COc1ccc(C(F)(F)F)cc1-c1cccn2nc(Nc3ccc4c(c3)CCN(C(=O)OC(C)(C)C)C4)nc12
4,167 to 169 °C,O=S(=O)(c1cc(C(F)(F)F)[nH]c1-c1ccc(Cl)cc1)C(F)(F)F
5,245 °C,COc1cc(N2C(=O)c3ccccc3C2=O)c(F)cc1C#N
6,133 to 134 °C,O=S(=O)(Oc1ccc(C(c2ccc(OS(=O)(=O)c3ccccc3)cc2)(C(F)(F)F)C(F)(F)F)cc1)c1ccccc1
7,210 to 213 °C,CCc1c(-c2ccc(OCc3ccccc3)cc2)c2cc(C(=O)OC)c3c(NC(C)=O)ccc1n23
8,101 to 104 °C,CCOC(=O)C(CCCN(C)CCc1ccc(OC)c(OC)c1)(C(=O)OCC)c1ccc(OC)c(OC)c1
9,92 to 93 °C,COc1ccc(COc2cccc(C=O)c2OCc2ccc(OC)cc2)cc1
10,14 °C,COC(=O)c1ccc(Oc2ccc(Oc3ccccc3)cc2)cc1
11,128 to 130 °C,COc1ccc2cccc(C(F)CNC(C)=O)c2c1 (configuration not stated)
12,205 to 207 °C,CC1(C)CC(=O)C2=C(C1)NC1=C(C(=O)CC(C)(C)C1)C2c1cccc(Oc2ccccc2)c1
13,123 to 124 °C,COc1ccc(C2=NN(c3ccc(Br)cc3)C(=O)C(C)(C)C2)cc1OC
14,159 to 161 °C,COc1cc(C)nc(NC(=O)NS(=O)(=O)c2c(C)nsc2OCC(F)(F)F)n1
15,221 to 222 °C,Cc1ccc2nc(-c3ccc([N+](=O)[O-])cc3)c(CNC(=O)CC(C)C)n2c1
16,125 to 128 °C,CCc1cc(C(=O)c2ccccc2Cl)c(-n2c(CO)nnc2CNC(=O)c2ccc(Cl)c(Cl)c2)s1
17,174 to 176 °C,CN(CCc1cccc(OCC(=O)O)c1)c1cnc(-c2ccccc2)c(-c2ccccc2)n1
18,141 to 143 °C,Cc1cc(OCc2sc(-c3ccc(C(F)(F)F)cc3)nc2C)ccc1CCC(=O)O

# Continued, compound first:
row,Compound,melting point
1,NS(=O)(=O)c1cccc2c1S(=O)(=O)CC2,215 to 217 °C
2,CCCCCCCCCCC[C@H](CC(=O)N[C@@H](CO)C(=O)OCc1ccccc1)OC(=O)CCCCCCCCCC,53 to 54 °C
3,C=CCc1cc(C)c2c(c1O)C(C)(C)C(=O)N2,141 to 143 °C
4,N#CC[C@H](O)Cc1cc2ccccc2[nH]1,92 to 93 °C
5,CSC1=NN=C(c2ccc([N+](=O)[O-])cc2)c2cc3c(cc2C1)OCO3,280 to 281 °C
6,COc1ccc(N2CCN(Cc3cn(C)c4ncccc34)CC2)cc1,92 to 94 °C
7,CCOC(=O)c1cnc2nc(OCC)ccc2c1Cl,72 to 75 °C
8,C=CC(=Cc1ccccc1)N(C)C,72 to 74 °C
9,COC(=O)C1C=CCN2C(=O)C(C)(CCO)C(=O)N12 (configuration not stated),97 to 99 °C
10,CNC(=O)N(C)c1nnc(C(C)(C)CC#N)s1,133 to 135 °C
11,COc1cc(OC(C)C)cc2c1-c1c(OC(C)C)cccc1C2=O,74 to 75 °C
12,CC(C)N(O)C(=O)Nc1cccc(S(C)(=O)=O)c1,168 to 169 °C
13,COc1cc2c(c(Cl)c1Cl)CCC2=O,163 to 165 °C
14,O=C(CCCN1CC=C(c2ccccc2)CC1)c1cccnc1,64 to 66 °C
15,O=C(Cc1cccc2ccccc12)N(O)[C@H](CN1CCCC1)c1ccccc1,81 to 83.5 °C
16,CCn1cc(C(=O)O)c(=O)c2cc(F)c(N3CCN4CCC3CC4)c(F)c21,261 to 263 °C
17,NC1=CC(=O)CC(c2c(Cl)cccc2Cl)C1 (configuration not stated),216 to 217 °C
18,COc1cc(C=O)ccc1OCCCl,60 to 61 °C
19,Clc1cccc(-c2nnnn2-c2cccnc2)c1Cl,124 to 126 °C
20,Nc1cccc(Nc2cccc(N)n2)n1,171 to 173 °C
21,COc1cc2c(c(OS(=O)(=O)c3ccc(C)cc3)c1OC)C1=C(CCC1)C(=O)CC2,138 °C

row,Compound,melting point
1,COCc1c(C(=O)OC)c2cc(OC)ccc2n1C,89.2 to 91 °C
2,CCN1CCN(c2ccc(C(=O)NCCCCCCCCCCCCO)cn2)CC1,108 to 110 °C
3,COc1nc2c(Cl)c(Cl)c(Cl)c(Cl)c2n1COC(CO)CO,192 °C
4,CC#CCOc1ccc(S(=O)(=O)C(CCCCCC#N)C(=O)OCC)cc1 (configuration not stated),63 °C
5,Cc1ccc(F)cc1C1CC(=O)CC(=O)C1,175 to 176 °C
6,C=CCOc1ccccc1-c1ncc(C(=O)OCC)c(=O)[nH]1,118 to 120 °C
7,COc1cccc2c1C13CCN(C(=O)C4CCC4)C(C2)C1CCC(=O)C3 (configuration not stated),125 to 126 °C
8,O=C1OC(CN2CCC(O)(c3ccccc3)CC2)CN1c1ccccc1 (configuration not stated),121 to 122 °C
9,Cc1ccc(S(=O)(=O)c2ccc(N3CCC4(CC3)OCCO4)cc2)cc1,164 to 165 °C
10,CCN(CC)CCCC1CCN(CCNC(=O)N2c3ccccc3NC(=O)c3csc(C)c32)CC1,131 to 133 °C
11,CC(=O)c1nc2ccc(OC(C)C)cc2cc1O,95 to 97 °C
12,CCC(=O)Nc1ccc(OC)cc1OC,63 to 65 °C
13,N#CC(N)=C(C#N)NCc1ccc(Cl)c(Cl)c1,158 to 160 °C
14,C=CCONC(=O)c1nc(Cl)cc(N)c1Cl,161 to 163 °C
15,CC(=O)OC1C(N2CCCCC2)CC2C3CCC4CC(O)C(N5CCOCC5)CC4(C)C3CCC21C (configuration not stated),177 to 184 °C
16,CCOC(=O)NN(C)C(=S)Nc1ccc(Cl)cc1F,151 °C
17,Brc1ccc(-c2nn[nH]n2)cc1,271 to 273 °C
18,CCc1ccc2c(=O)cc(C(=O)O)[nH]c2c1,271 °C
19,N#Cc1ccc(N2CCN(c3ccnc(Cl)n3)CC2)cc1,216 to 218 °C
20,C=C1CC2C(CCC3(C)C(OC(C)=O)CCC23)C2(C)CCC(=O)C=C12 (configuration not stated),138 to 140 °C
